# Reference: patent publication US6780972B2, “Method for the synthesis of peptide salts, their use and the pharmaceutical preparations, containing peptide salts” (Zentaris GmbH, priority 2000, dated 2004)
# Non-standard residues stand in square brackets, D forms with d. Residues, ends and D or L forms follow the SMILES beside them. dPhe(4-Cl) = N[C@H](Cc1ccc(Cl)cc1)C(=O)O; d2Nal = N[C@H](Cc1ccc2ccccc2c1)C(=O)O; dCit = NC(=O)NCCC[C@@H](N)C(=O)O; d3Pal = N[C@H](Cc1cccnc1)C(=O)O
# How the values were obtained:
# [1] = Cetrorelix plasma concentration and bioavailability after administration of the Cetrorelix embonate (2:1) lyophilysate in man (Clinical Phase I); format: in vivo
# Experimental: (§1) The Cetrorelix embonate (2:1) lyophilysate (30 mg), obtained according to Example 1, is resuspended in 2 mL of water for injection purposes and can then be administered parenterally, preferable subcutaneously (s.c.) or intramuscularly (i.m.)
# (§2) For the s.c. administration, the bioavailability of the Cetrorelix embonate (2:1) is about 30 to 50% (100%=intravenously administered Cetrolix acetate). […] The duration of the effect depends on the dose; for a dose of 30 to 150 mg, it is 2 to 8 weeks or longer. The inventive Cetrorelix embonate (2:1) lyophilysate has already been investigated in Clinical Phase I in man.
# (§3) The period of action exceeded 700 hours. The plasma level was constant at about 2 ng/mL 150 hours after the administration. The bioavailability was abut 40%.
# [2] = Duration of effect / period of action after administration in man; format: in vivo
# Experimental: as §1, §2, §3
smiles,measurement,setting,value
"CC(=O)N[C@H](Cc1ccc2ccccc2c1)C(=O)N[C@H](Cc1ccc(Cl)cc1)C(=O)N[C@H](Cc1cccnc1)C(=O)N[C@@H](CO)C(=O)N[C@@H](Cc1ccc(O)cc1)C(=O)N[C@H](CCCNC(N)=O)C(=O)N[C@@H](CC(C)C)C(=O)N[C@@H](CCCNC(=N)N)C(=O)N1CCC[C@H]1C(=O)N[C@H](C)C(N)=O [Cetrorelix embonate (2:1), Cetrorelix embonate] (Ac-[d2Nal][dPhe(4-Cl)][d3Pal]SY[dCit]LRP[dA]-NH2; N-terminus and C-terminus assumed)",burst effect (ca. 100 ng/mL),"[1]; 60 mg in man, FIG. 1",could not be detected
same,bioavailability,"[1]; human, in vivo, subcutaneous, s.c. administration, 100% = intravenously administered Cetrolix acetate",30 to 50%
same,bioavailability,"[1]; human, plasma, 60 mg in man, FIG. 1",~40%
same,level at 150 h,"[1]; human, plasma, 60 mg in man, constant 150 hours after the administration, FIG. 1",~2 ng/mL
same,burst effect,[1]; in patients,slight or even absent
same,period of action,"[2]; 60 mg in man, FIG. 1",exceeded 700 hours
same,duration of the effect,"[2]; dose of 30 to 150 mg, depends on the dose, 'or longer'",2 to 8 weeks
